From patent US20240101570A1 (AMGEN INC., priority 2020, published 2024)

Experiments:
HCT116 MTAP null cells = experiment: HCT116 MTAP null cell proliferation / viability (CellTiter-Glo, 6 days); type: cell-based; conditions: HCT116-MTAP null, 144 h, HCT116 MTAP null cells, 6 days, CellTiter-Glo; read-out: HCT-116 MTAP null IC50
Procedure, shortened: (§1)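 Viability read by CellTiter-Glo after 6-day compound exposure of MTAP-null and wild-type HCT116 cells grown in RPMI 1640 with 10% FBS. Dosing used 1:3 steps from 1 or 10 μM (8-9 points) or 1:2 steps from 10 or 50 μM (22 points); IC50 taken where fitted curve crosses 50% of control.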

HCT116 WT cells = experiment: HCT116 WT cell proliferation / viability (CellTiter-Glo, 6 days); type: cell-based; conditions: Homo sapiens, HCT-116, 144 h, HCT116 WT cells, 6 days, CellTiter-Glo; read-out: HCT-116 WT IC50
Procedure, shortened: as §1

| SMILES | IC50 (HCT116 MTAP null cells) [µM] | IC50 (HCT116 WT cells) [µM] |
| --- | --- | --- |
| CCN(Cc1ccc(OC(F)F)nn1)C(=O)c1ccc2nc(N)c3c(c2c1)COC3 [Example 723, 4-amino-N-((6-(difluoromethoxy)-3-pyridazinyl)methyl)-N-ethyl-1,3-dihydrofuro[3,4-c]quinoline-8-carboxamide] | 0.157 | 6.02 |
| CCN(Cc1ccc(OC(F)F)nn1)C(=O)c1cc2c3c(c(N)nc2cc1F)COC3 [Example 724, 4-amino-N-((6-(difluoromethoxy)-3-pyridazinyl)methyl)-N-ethyl-7-fluoro-1,3-dihydrofuro[3,4-c]quinoline-8-carboxamide] | 0.054 | 2.44 |
| CCN(Cc1ccc(OC(F)F)nn1)C(=O)c1ccc2nc(N)c3c(c2c1)CO[C@@H]3C [Example 726, (3R)-4-amino-N-((6-(difluoromethoxy)-3-pyridazinyl)methyl)-N-ethyl-3-methyl-1,3-dihydrofuro[3,4-c]quinoline-8-carboxamide] | 0.109 | 7.52 |
| COC[C@@H](C)N(Cc1ccc(C(F)(F)F)cn1)C(=O)c1cc2c3c(c(N)nc2cn1)COC3 [Example 728, 4-amino-N-((2R)-1-methoxy-2-propanyl)-N-((5-(trifluoromethyl)-2-pyridinyl)methyl)-1,3-dihydrofuro[3,4-c][1,7]naphthyridine-8-carboxamide] | 0.047 | 0.663 |
| Nc1nc2cc(F)c(C(=O)N(Cc3ccc(C(F)(F)F)cn3)c3cnn(C(F)(F)F)c3)cc2c2c1COC2 [Example 729, 4-amino-7-fluoro-N-(1-(trifluoromethyl)-1H-pyrazol-4-yl)-N-((5-(trifluoromethyl)-2-pyridinyl)methyl)-1,3-dihydrofuro[3,4-c]quinoline-8-carboxamide] | 0.019 | 0.534 |
| Nc1nc2cc(F)c(C(=O)N(Cc3ccc(C(F)(F)F)nn3)CC3CC3)cc2c2c1COC2 [Example 730, 4-amino-N-(cyclopropylmethyl)-7-fluoro-N-((6-(trifluoromethyl)-3-pyridazinyl)methyl)-1,3-dihydrofuro[3,4-c]quinoline-8-carboxamide] | 0.017 | 0.62 |
| Cn1ncc2c3cc(C(=O)N(Cc4ccc(C(F)(F)F)nn4)CC4CC4)c(F)cc3nc(N)c21 [Example 731, 4-amino-N-(cyclopropylmethyl)-7-fluoro-3-methyl-N-((6-(trifluoromethyl)-3-pyridazinyl)methyl)-3H-pyrazolo[3,4-c]quinoline-8-carboxamide] | 0.047 | 2.09 |
| Nc1nc2cnc(C(=O)N(Cc3ccc(C(F)(F)F)cn3)c3cnn(C(F)(F)F)c3)cc2c2c1COC2 [Example 732, 4-amino-N-(1-(trifluoromethyl)-1H-pyrazol-4-yl)-N-((5-(trifluoromethyl)-2-pyridinyl)methyl)-1,3-dihydrofuro[3,4-c][1,7]naphthyridine-8-carboxamide] | 0.087 | 2.85 |
| CC(C)N(Cc1ccc(C(F)(F)F)cc1)C(=O)c1cc2c3c(c(N)nc2cn1)COC3 [Example 733, 4-amino-N-(2-propanyl)-N-(4-(trifluoromethyl)benzyl)-1,3-dihydrofuro[3,4-c][1,7]naphthyridine-8-carboxamide] | 0.29 | 6.3 |
| Nc1nc2cnc(C(=O)N(Cc3ccc(C(F)(F)F)cc3)C3CC3)cc2c2c1COC2 [Example 734, 4-amino-N-cyclopropyl-N-(4-(trifluoromethyl)benzyl)-1,3-dihydrofuro[3,4-c][1,7]naphthyridine-8-carboxamide] | 0.383 | 14.4 |
| C[C@@H](c1ccc(C(F)(F)F)cn1)N(C(=O)c1ccc2nc(N)c3c(c2c1)COC3)C1CC1 [Example 735, 4-amino-N-cyclopropyl-N-((1S)-1-(5-(trifluoromethyl)-2-pyridinyl)ethyl)-1,3-dihydrofuro[3,4-c]quinoline-8-carboxamide] | 5.5 | 36.2 |
| C[C@H](c1ccc(C(F)(F)F)cn1)N(C(=O)c1ccc2nc(N)c3c(c2c1)COC3)C1CC1 [Example 736, 4-amino-N-cyclopropyl-N-((1R)-1-(5-(trifluoromethyl)-2-pyridinyl)ethyl)-1,3-dihydrofuro[3,4-c]quinoline-8-carboxamide] | 0.127 | 4.89 |
| CCN(C(=O)c1cc2c3c(c(N)nc2cc1Cl)COC3)[C@H](C)c1ccc(C(F)(F)F)cn1 [Example 738, 4-amino-7-chloro-N-ethyl-N-((1R)-1-(5-(trifluoromethyl)-2-pyridinyl)ethyl)-1,3-dihydrofuro[3,4-c]quinoline-8-carboxamide] | 0.013 | 0.43 |
| Cn1cc(N(Cc2ccc(C(F)(F)F)cn2)C(=O)c2cc3c(cc2F)nc(N)c2cnn(C)c23)cn1 [Example 740, 4-amino-7-fluoro-1-methyl-N-(1-methyl-1H-pyrazol-4-yl)-N-((5-(trifluoromethyl)-2-pyridinyl)methyl)-1H-pyrazolo[4,3-c]quinoline-8-carboxamide] | 0.005 | 0.1 |
| Nc1nc2cc(Cl)c(C(=O)N(Cc3ccc(C(F)(F)F)nn3)CC3CC3)cc2c2c1COC2 [Example 741, 4-amino-7-chloro-N-(cyclopropylmethyl)-N-((6-(trifluoromethyl)-3-pyridazinyl)methyl)-1,3-dihydrofuro[3,4-c]quinoline-8-carboxamide] | 0.042 | 1.02 |
| CCN(C(=O)c1ccc2nc(N)c3c(c2c1)COC3)[C@H](C)c1ccc(C(F)(F)F)cc1F [Example 742, 4-amino-N-ethyl-N-((1R)-1-(2-fluoro-4-(trifluoromethyl)phenyl)ethyl)-1,3-dihydrofuro[3,4-c]quinoline-8-carboxamide] | 0.066 | 2.5 |
| CCN(C(=O)c1ccc2nc(N)c3c(c2c1)COC3)[C@H](C)c1ccc(C(F)(F)F)cc1 [Example 743, 4-amino-N-ethyl-N-((1R)-1-(4-(trifluoromethyl)phenyl)ethyl)-1,3-dihydrofuro[3,4-c]quinoline-8-carboxamide] | 0.015 | 1.09 |
| C[C@H](c1ccc(C(F)(F)F)nn1)N(C(=O)c1cc2c3c(c(N)nc2cc1Cl)COC3)C1CCC1 [Example 744, 4-amino-7-chloro-N-cyclobutyl-N-((1R)-1-(6-(trifluoromethyl)-3-pyridazinyl)ethyl)-1,3-dihydrofuro[3,4-c]quinoline-8-carboxamide] | 0.038 | 0.967 |
| C[C@H](c1ccc(C(F)(F)F)nn1)N(C(=O)c1ccc2nc(N)c3c(c2c1)COC3)C1CCC1 [Example 745, 4-amino-N-cyclobutyl-N-((1R)-1-(6-(trifluoromethyl)-3-pyridazinyl)ethyl)-1,3-dihydrofuro[3,4-c]quinoline-8-carboxamide] | 0.246 | 14.8 |
| C[C@H](c1ccc(C(F)(F)F)cn1)N(C(=O)c1ccc2nc(N)c3c(c2c1)CO[C@@H]3C)C1CC1 [Example 746, (3R)-4-amino-N-cyclopropyl-3-methyl-N-((1R)-1-(5-(trifluoromethyl)-2-pyridinyl)ethyl)-1,3-dihydrofuro[3,4-c]quinoline-8-carboxamide] | 0.034 | 3.46 |
| CCOc1ccc(CN(CC)C(=O)c2cc3c4c(c(N)nc3cc2F)COC4)nn1 [Example 747, 4-amino-N-((6-ethoxy-3-pyridazinyl)methyl)-N-ethyl-7-fluoro-1,3-dihydrofuro[3,4-c]quinoline-8-carboxamide] | 0.161 | 5.09 |
| CCN(C(=O)c1ccc2nc(N)c3c(c2c1)COC3)[C@H](c1ccc(C(F)(F)F)cn1)C1CC1 [Example 748, 4-amino-N-((S)-cyclopropyl(5-(trifluoromethyl)-2-pyridinyl)methyl)-N-ethyl-1,3-dihydrofuro[3,4-c]quinoline-8-carboxamide] | 5.35 | 36.4 |
| CCOc1ccc(CN(C(=O)c2cc3c4c(c(N)nc3cn2)COC4)[C@H](C)c2ncccn2)nn1 [Example 749, 4-amino-N-((6-ethoxy-3-pyridazinyl)methyl)-N-((1R)-1-(2-pyrimidinyl)ethyl)-1,3-dihydrofuro[3,4-c][1,7]naphthyridine-8-carboxamide] | 0.177 | 3.35 |
| Cn1cc(N(Cc2ccc(C(F)(F)F)nn2)C(=O)c2cc3c4c(c(N)nc3cc2F)COC4)cn1 [Example 750, 4-amino-7-fluoro-N-(1-methyl-1H-pyrazol-4-yl)-N-((6-(trifluoromethyl)-3-pyridazinyl)methyl)-1,3-dihydrofuro[3,4-c]quinoline-8-carboxamide] | 0.023 | 0.767 |
| Cn1cc(N(Cc2ccc(C(F)(F)F)nn2)C(=O)c2cc3c4c(c(N)nc3cc2Cl)COC4)cn1 [Example 751, 4-amino-7-chloro-N-(1-methyl-1H-pyrazol-4-yl)-N-((6-(trifluoromethyl)-3-pyridazinyl)methyl)-1,3-dihydrofuro[3,4-c]quinoline-8-carboxamide] | 0.017 | 0.337 |
| CCOc1ccc(CN(CC2CC2)C(=O)c2cc3c4c(c(N)nc3cc2F)COC4)nn1 [Example 752, 4-amino-N-(cyclopropylmethyl)-N-((6-ethoxy-3-pyridazinyl)methyl)-7-fluoro-1,3-dihydrofuro[3,4-c]quinoline-8-carboxamide] | 0.033 | 0.771 |
| CCOc1ccc(CN(CC2CC2)C(=O)c2cc3c4c(c(N)nc3cn2)COC4)nn1 [Example 753, 4-amino-N-(cyclopropylmethyl)-N-((6-ethoxy-3-pyridazinyl)methyl)-1,3-dihydrofuro[3,4-c][1,7]naphthyridine-8-carboxamide] | 0.124 | 3.89 |
| CC(C)N(Cc1ccc(C(F)(F)F)cn1)C(=O)c1ccc2nc(N)c3ccncc3c2c1 [Example 754, 5-amino-N-(2-propanyl)-N-((5-(trifluoromethyl)-2-pyridinyl)methyl)benzo[c][2,6]naphthyridine-9-carboxamide] | 0.024 | 0.37 |
